Patent publication US4002742A, “1-N-alkyl-4,6-di-(aminoglycosyl)-1,3-diaminocyclitols, methods for their manufacture, methods for their use as antibacterial agents, and compositions useful therefor” (priority 1974, dated 1977)
≈ marks a conversion by molar mass, not a printed value.

Key:
Assay type in all cases: cell-based
[1] = system: organisms resistant to the parent compound; assay: activity against organisms resistant to the 1-N-unsubstituted parent compounds; details: organisms resistant to the 1-N-unsubstituted precursors
Description: (§1) Particularly useful compounds of our invention are those wherein X is a lower alkyl having up to 8 carbon atoms, particularly those having up to 4 carbon atoms, e.g. compounds of formulae I, II, III, IV, and V wherein X is methyl, ethyl, n-propyl or n-butyl.

[2] = system: gram positive bacteria and gram negative bacteria; assay: antibacterial activity (standard dilution tests); details: versus parent antibiotic
Description: as §1

Escherichia coli = assay: in vitro minimal inhibitory concentration, standard tube dilution method in Mueller-Hinton broth
Description: In Table 1, set forth below is shown the in vitro minimal inhibitory concentration (MIC) of gentamicin C2a against representative gram-positive gram-negative bacteria. The results are derived using the standard tube dilution method in Mueller-Hinton broth.
In Table 2, set forth below is shown the in vitro minimal inhibitory concentration (MIC) of gentamicin C2b against representative gram-positive and gram-negative bacteria. The results are derived using the standard tube dilution method in Mueller-Hinton broth.

bacteria = assay: antibacterial activity and spectrum compared with the gentamicins

Structure (SMILES) | activity against resistant organisms [1] | also measured
CCCN[C@@H]1C[C@H](N)[C@@H](O[C@H]2OC(CN)=CC[C@H]2N)[C@H](O)[C@H]1O[C@H]1OC[C@](C)(O)[C@H](NC)[C@H]1O [1-N-(n-propyl) sisomicin, 1-N-(n-propyl)sisomicin] | exhibit activity against gram negative organisms which are resistant to their 1-N-unsubstituted precursors | –
CCCN[C@@H]1C[C@H](N)[C@@H](O[C@H]2OC(C(C)N)=CC[C@H]2N)[C@H](O)[C@H]1O[C@H]1OC[C@](C)(O)[C@H](NC)[C@H]1O (stereo partly shown) [1-N-(n-propyl) verdamicin, 1-N-(n-propyl)verdamicin] | exhibit activity against gram negative organisms which are resistant to their 1-N-unsubstituted precursors | –
CN[C@@H]1[C@@H](O)[C@@H](O[C@@H]2[C@@H](O)[C@H](O[C@H]3OC(CN)=CC[C@H]3N)[C@@H](N)C[C@H]2NCCCCN)OC[C@]1(C)O [1-N-(δ-aminobutyl) sisomicin, 1-N-(δ-aminobutyl)sisomicin] | exhibit activity against gram negative organisms which are resistant to their 1-N-unsubstituted precursors | –
CN[C@@H]1[C@@H](O)[C@@H](O[C@@H]2[C@@H](O)[C@H](O[C@H]3OC(C(C)N)=CC[C@H]3N)[C@@H](N)C[C@H]2NCCCCN)OC[C@]1(C)O (stereo partly shown) [1-N-(δ-aminobutyl) verdamicin, 1-N-(δ-aminobutyl)veradamicin] | exhibit activity against gram negative organisms which are resistant to their 1-N-unsubstituted precursors | –
CCN[C@@H]1C[C@H](N)[C@@H](O[C@H]2OC(CN)=CC[C@H]2N)[C@H](O)[C@H]1O[C@H]1OC[C@](C)(O)[C@H](NC)[C@H]1O [1-N-ethylsisomicin] | exhibit activity against gram negative organisms which are resistant to their 1-N-unsubstituted precursors | antibacterial activity compared to the parent antibiotics [2]: enhanced antibacterial activity
CCN[C@@H]1C[C@H](N)[C@@H](O[C@H]2OC(C(C)N)=CC[C@H]2N)[C@H](O)[C@H]1O[C@H]1OC[C@](C)(O)[C@H](NC)[C@H]1O (stereo partly shown) [1-N-ethylverdamicin] | exhibit activity against gram negative organisms which are resistant to their 1-N-unsubstituted precursors | –
CN[C@@H]1[C@@H](O)[C@@H](O[C@@H]2[C@@H](O)[C@H](O[C@H]3O[C@H]([C@H](C)N)CC[C@H]3N)[C@@H](N)C[C@H]2N)OC[C@]1(C)O [gentamicin C2a] | – | MIC (Escherichia coli): 17.5 µg/mL (≈ 37.8 µM); activity relative to the gentamicin C complex (bacteria; as the free base, of the activity of the gentamicin C complex): about 74%; antibacterial spectrum in vitro (bacteria; compared with gentamicin C1, C1a and C2): substantially the same antibacterial spectrum in vitro as do gentamicin C1, C1a, and C2
